Assay results: patent US20220330594A1 (WisTa Laboratories Ltd., priority 2019, published 2022)
Structures can show the parent of a compound that is named as a salt.

Key:
synaptophysin = assay: Quantitative immunohistochemistry of synaptophysin in brain sections; assay type: in vivo; conditions: wild-type mice
Method: (§1) Wild-type and L1 mice (n=7-16 for each group) were pre-treated with rivastigmine (0.1 or 0.5 mg/kg/day) or memantine (2 or 20 mg/kg/day) or vehicle for 5 weeks by gavage. For the following 6 weeks, LMTM (5 and 15 mg/kg) or vehicle were added to this daily treatment regime, also by gavage. Animals were tested behaviourly during weeks 10 and 11 using a problem solving task in the open field water maze and then sacrificed for immunohistochemical and other tissue analyses.

wild-type mice = assay: Behaviour: problem solving task in the open field water maze; assay type: in vivo
Method: as §1, with “The treatment schedule used to study the negative interaction between symptomatic treatments and LMTM was designed to model the clinical situation in which subjects are first treated chronically with a cholinesterase inhibitor or memantine before receiving LMTM. In what follows, we summarise some of the key results obtained for the AChEI, rivastigmine. Wild-type” for “Wild-type”

tau transgenic L1 mice = assay: Treatment effects of LMTM and rivastigmine in tau transgenic L1 mice; assay type: in vivo; conditions: results not shown
Description: In the L1 mouse model which was used in some of the present studies, there is over-expression of a three-repeat tau fragment encompassing residues 296-390 of the 2N4R tau isoform under the control of the Thy 1 promotor in an NMRI mouse strain (WO2002/059150). This fragment corresponds to the segment of tau first identified within the proteolytically stable core of the PHF (Wischik et al., 1988a; Wischik et al., 1988b) and recently confirmed by cryo-electronmicroscopy of PHFs in AD and tau filaments in Pick's disease (Fitzpatrick et al., 2017; Falcon et al., 2018).
The treatment schedule used to study the negative interaction between symptomatic treatments and LMTM was designed to model the clinical situation in which subjects are first treated chronically with a cholinesterase inhibitor or memantine before receiving LMTM. In what follows, we summarise some of the key results obtained for the AChEI, rivastigmine. […]
For measurement of acetylcholine (ACh) levels in hippocampus, animals (wild-type or L1) were treated with LMTM (5 mg/kg/day for 2 weeks) after prior treatment for 2 weeks with or without rivastigmine (0.5 mg/kg/day). […] Levels of ACh were measured in hippocampus using an implanted microdialysis probe and HPLC analysis of the extracellular fluid.

[1] = system: ACh levels in the hippocampus; assay: Hippocampal ACh microdialysis with rivastigmine and scopolamine in the perfusion fluid; assay type: in vivo, wild type mice
Description: Under the condition of cholinesterase inhibition used in these experiments (a very small amount of a cholinesterase inhibitor, 100 nanomolar rivastigmine, added to the perfusion fluid), ACh levels in the hippocampus rise, and when they rise strongly enough, they limit additional ACh release by activating pre-synaptic muscarinic receptors of the M2/M4 subtype (so-called negative feedback receptors).
In this situation, adding scopolamine ([…]) to the perfusion fluid blocks these presynaptic receptors and, as a consequence, ACh levels rise by 3-5 fold. The fact that LMTM is not additive with rivastigmine in these experiments supports the conclusion that LMTM has a different mechanism of action from rivastigmine. In other words, although LMTM has been described as being a weak inhibitor of cholinesterases in high concentrations, the present effects seem to be unrelated to cholinesterase inhibition, because there is no additive effect with small quantities of rivastigmine.

[2] = system: acetylcholine (ACh) levels in hippocampus; assay: Hippocampal acetylcholine levels by implanted microdialysis probe and HPLC; assay type: in vivo; conditions: wild-type mice
Method: […] Rivastigmine was administered subcutaneously with an Alzet minipump whereas LMTM was administered by oral gavage. Levels of ACh were measured in hippocampus using an implanted microdialysis probe and HPLC analysis of the extracellular fluid.
Data are presented as group averages and standard errors of mean and were analysed using parametric statistics, with alpha set to 0.05.

Mitochondrial complex IV = assay: Direct measurement of mitochondrial complex IV activity after treatment; assay type: in vivo; conditions: wild type mice
Method: as §1, with “The treatment schedule used to study the negative interaction between symptomatic treatments and LMTM was designed to model the clinical situation in which subjects are first treated chronically with a cholinesterase inhibitor or memantine before receiving LMTM. In what follows, we summarise some of the key results obtained for the AChEI, rivastigmine. Wild-type” for “Wild-type”

[3] = LMTM alone 5 or 15 mg/kg/day, approximate rounded percentage

| Structure (SMILES) | Synaptophysin, ↑ (increase) (synaptophysin; [3]) | increase in mean synaptophysin levels (synaptophysin; mean of hippocampus, visual cortex, diagonal band and septum, LMTM alone (FIG. 1B)) [fold] | spatial recognition memory (wild-type mice) | treatment effects in L1 mice compared with wild-type mice (tau transgenic L1 mice) | effect on ACh levels in scopolamine experiments ([1]; wild type mice, 100 nanomolar rivastigmine in the perfusion fluid, scopolamine blocking M2/M4 receptors) | increase in basal ACh levels in hippocampus ([2]; LMTM 5 mg/kg/day for 2 weeks, oral gavage, significant (FIG. 1A)) [fold] | ACh release, ↑ (increase) [2, 3] | complex IV activity following LMTM treatment (Mitochondrial complex IV) | rise in ACh levels in the hippocampus ([1]; scopolamine (μM) added to perfusion fluid containing 100 nanomolar rivastigmine) |
| --- | --- | --- | --- | --- | --- | --- | --- | --- | --- |
| CN(C)c1ccc2c(c1)Sc1cc(N(C)C)ccc1N2 [LMTM, hydromethylthionine mesylate] | ↑ × 300% | 3 | not associated with improvement | larger and more generalised | less than that seen with rivastigmine alone | 2 | ↑ × 200% | did not show any increase | – |
| CN1[C@@H]2C[C@@H](OC(=O)[C@H](CO)c3ccccc3)C[C@H]1[C@@H]1O[C@@H]12 [scopolamine, reference compound] | – | – | – | – | – | – | – | – | 3-5 fold |
